PubChem BioAssay AID264 (DTP/NCI, 2004)
Where “and” joins values, the source holds several entries; their conditions need not be identical. Equal values may be shown once. Records with an inconclusive call do not appear.

Tested on: nude mice, LX-1 lung xenograft intrarenal, tumor weight T/C
Test: NCI In Vivo Anticancer Drug Screen. Data for tumor model Human Lung LX-1 Xenograft (intrarenal inoculation) in NU/NU Swiss (nude) mice
Details: endpoint: mean tumor weight change, higher = larger tumour
How it was run: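 Antitumor effect is expressed as a ratio: the mean tumor measurement of the drug-treated group relative to that of the vehicle-dosed control group.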

[1] = dose: 12.5 mg/kg/injection, schedule: Q01DX010 (sc), vehicle: saline
[2] = dose: 50.0 mg/kg/injection, schedule: Q01DX010 (sc), vehicle: saline
[3] = dose: 100.0 mg/kg/injection, schedule: Q01DX010 (sc), vehicle: saline
[4] = dose: 150.0 mg/kg/injection, schedule: Q04DX003 (sc), vehicle: saline
[5] = dose: 1.0 mg/kg/injection, schedule: Q01DX010 (sc), vehicle: saline

CC(=O)Oc1ccccc1O was tested, and the T/C (dose: 150.0 mg/kg/injection, schedule: Q04DX003 (sc), vehicle: saline + Tween-80 + alcohol) was 105 % of control, the T/C (dose: 300.0 mg/kg/injection, schedule: Q04DX003 (sc), vehicle: saline + Tween-80 + alcohol) was 101 % of control and the T/C (dose: 600.0 mg/kg/injection, schedule: Q04DX003 (sc), vehicle: saline + Tween-80 + alcohol) was 89 % of control. The T/C (dose: 1200.0 mg/kg/injection, schedule: Q04DX003 (sc), vehicle: saline + Tween-80 + alcohol) was 82 % of control.

For COc1cccc2c1C(=O)c1c(O)c3c(c(O)c1C2=O)C[C@@](O)(/C(C)=N\O)C[C@@H]3OC1CC(N)C(O)C(C)O1 (some centres not stated), the T/C (dose: 25.0 mg/kg/injection, schedule: Q04DX003 (sc), vehicle: saline) was 95 % of control and the T/C (dose: 50.0 mg/kg/injection, schedule: Q04DX003 (sc), vehicle: saline) was 76 % of control.

With COc1cc(C)c2c(c1C=O)Oc1c(c(C)c(O)c3c1C(O)OC3=O)OC2=O (configuration not stated) the T/C [1] was 95 % of control, the T/C (dose: 25.0 mg/kg/injection, schedule: Q01DX010 (sc), vehicle: saline) was 103 % of control and the T/C [2] was 59 % of control. The T/C [3] was 32 % of control.

With CN1N=C(N)c2cn(C3OC(COP(=O)(O)O)C(O)C3O)c3ncnc1c23 (configuration not stated) the T/C (dose: 12.5 mg/kg/injection, schedule: Q01DX010 (sc), vehicle: water) was 107 % of control, the T/C (dose: 25.0 mg/kg/injection, schedule: Q01DX010 (sc), vehicle: water) was 109 % of control and the T/C (dose: 50.0 mg/kg/injection, schedule: Q01DX010 (sc), vehicle: water) was 81 % of control.

With C=C(OP(=O)(OC)OC)Sc1ccccc1C the T/C (dose: 100.0 micrograms/kg/injection, schedule: Q04DX003 (sc), vehicle: Klucel (hydroxypropylcellulose) (HPC)) was 68 % of control, the T/C (dose: 200.0 micrograms/kg/injection, schedule: Q04DX003 (sc), vehicle: Klucel (hydroxypropylcellulose) (HPC)) was 68 % of control and the T/C (dose: 400.0 micrograms/kg/injection, schedule: Q04DX003 (sc), vehicle: Klucel (hydroxypropylcellulose) (HPC)) was 67 % of control. The T/C (dose: 800.0 micrograms/kg/injection, schedule: Q04DX003 (sc), vehicle: Klucel (hydroxypropylcellulose) (HPC)) was 79 % of control.

For COC(=O)c1ccoc1, the T/C [4] was 107 % of control.

In the case of N[C@@H](Cc1ccc(N(CCCl)CCCl)cc1)C(=O)O, the T/C [5] is reported as 107 % of control.

For Nc1ccc2nc3ccc(N)cc3[n+](-c3ccccc3)c2c1, the T/C (dose: 36.0 mg/kg/injection, schedule: Q04DX003 (sc), vehicle: saline) was 110 % of control and the T/C (dose: 72.0 mg/kg/injection, schedule: Q04DX003 (sc), vehicle: saline) was 70 % of control.

With N#C[C@H](OC1OC(COC2OC(CO)C(O)C(O)C2O)C(O)C(O)C1O)c1ccccc1 (some centres not stated) the T/C (dose: 900.0 mg/kg/injection, schedule: Q04DX003 (sc), vehicle: suspension in saline) was 82 % of control and the T/C (dose: 1800.0 mg/kg/injection, schedule: Q04DX003 (sc), vehicle: suspension in saline) was 123 % of control.

Clc1ccc(C(c2ccccc2Cl)C(Cl)Cl)cc1 (configuration not stated) was tested, and the T/C (dose: 400.0 mg/kg/injection, schedule: Q01DX010 (sc), vehicle: saline with Tween-80) was 80 % of control, the T/C (dose: 800.0 mg/kg/injection, schedule: Q01DX010 (sc), vehicle: saline with Tween-80) was 40 % of control and the T/C (dose: 800.0 mg/kg/injection, schedule: Q01DX010 (sc), vehicle: saline) was 69 % of control. The T/C (dose: 1600.0 mg/kg/injection, schedule: Q01DX010 (sc), vehicle: saline with Tween-80) was 56 % of control, the T/C (dose: 1600.0 mg/kg/injection, schedule: Q01DX010 (sc), vehicle: saline) was 55 % of control and the T/C (dose: 3200.0 mg/kg/injection, schedule: Q01DX010 (sc), vehicle: saline with Tween-80) was 24 % of control. The T/C (dose: 3200.0 mg/kg/injection, schedule: Q01DX010 (sc), vehicle: saline) was 80 % of control and the T/C (dose: 6400.0 mg/kg/injection, schedule: Q01DX010 (sc), vehicle: saline) was 73 % of control.

With CN(C)CCCNc1c2ccccc2nc2cccc([N+](=O)[O-])c12 the T/C (dose: 0.37 mg/kg/injection, schedule: Q04DX003 (sc), vehicle: saline) was 117 % of control, the T/C (dose: 0.75 mg/kg/injection, schedule: Q04DX003 (sc), vehicle: saline) was 100 % of control and the T/C (dose: 1.5 mg/kg/injection, schedule: Q04DX003 (sc), vehicle: saline) was 95 % of control.

For CC1=NN(c2cccc(S(=O)(=O)O)c2)C(=O)C1N=Nc1cc(Cl)cc(S(=O)(=O)O)c1O.CC1=NN(c2cccc(S(=O)(=O)O)c2)C(=O)C1N=Nc1cc(Cl)cc(S(=O)(=O)O)c1O.[Cr] (configuration not stated), the T/C [4] was 171 % of control, the T/C (dose: 300.0 mg/kg/injection, schedule: Q04DX003 (sc), vehicle: saline) was 152 % of control and the T/C (dose: 600.0 mg/kg/injection, schedule: Q04DX003 (sc), vehicle: saline) was 110 % of control.

In the case of c1ccc2c(c1)-c1ccccc1C1NC21 (configuration not stated), the T/C (dose: 37.5 mg/kg/injection, schedule: Q04DX003 (sc), vehicle: saline with Tween-80) is reported as 82 % of control, the T/C (dose: 75.0 mg/kg/injection, schedule: Q04DX003 (sc), vehicle: saline with Tween-80) is reported as 56 % of control and the T/C (dose: 150.0 mg/kg/injection, schedule: Q04DX003 (sc), vehicle: saline with Tween-80) is reported as 45 % of control.

In the case of Cc1c2ccncc2c(C)c2c1[nH]c1ccccc12, the T/C (dose: 6.25 mg/kg/injection, schedule: Q01DX010 (sc), vehicle: saline) is reported as 24 % of control, the T/C [1] is reported as 85 % of control and the T/C [2] is reported as 72 % of control and 75 % of control. For the same molecule, the T/C [3] was 59 % of control.

Nc1nncs1 was tested, and the T/C [1] was 104 % of control.

In the case of O=C(O)c1cc(Cc2ccc(O)c(C(=O)O)c2)ccc1O (tested in a mixture with another compound), the T/C (dose: 300.0 mg/kg/injection, schedule: Q04DX003 (sc), vehicle: Klucel (hydroxypropylcellulose) (HPC)) is reported as 89 % of control, the T/C (dose: 600.0 mg/kg/injection, schedule: Q04DX003 (sc), vehicle: Klucel (hydroxypropylcellulose) (HPC)) is reported as 64 % of control and the T/C (dose: 1200.0 mg/kg/injection, schedule: Q04DX003 (sc), vehicle: Klucel (hydroxypropylcellulose) (HPC)) is reported as 91 % of control. The T/C (dose: 2400.0 mg/kg/injection, schedule: Q04DX003 (sc), vehicle: Klucel (hydroxypropylcellulose) (HPC)) was 68 % of control.

Cc1cc2c(c3oc(C4(C)OC4C4OC4C)cc(=O)c13)C(=O)c1c(O)c(C3CC(C)(N(C)C)C(O)C(C)O3)cc(C3CC(N(C)C)C(O)C(C)O3)c1C2=O (configuration not stated) was tested, and the T/C (dose: 0.03 mg/kg/injection, schedule: Q01DX010 (sc), vehicle: saline) was 57 % of control and the T/C (dose: 0.06 mg/kg/injection, schedule: Q01DX010 (sc), vehicle: saline) was 66 % of control.

For CC(=O)OC(C)C1C2=C(C(=O)CC1(C)O)C(=O)c1c(ccc(-c3ccc4c(c3O)C(=O)C3=C(C4=O)C(C(C)OC(C)=O)C(C)(O)CC3=O)c1O)C2=O (configuration not stated), the T/C (dose: 3.75 mg/kg/injection, schedule: Q04DX003 (sc), vehicle: saline with Tween-80) was 45 % of control, the T/C (dose: 7.5 mg/kg/injection, schedule: Q04DX003 (sc), vehicle: saline with Tween-80) was 86 % of control and the T/C (dose: 15.0 mg/kg/injection, schedule: Q04DX003 (sc), vehicle: saline with Tween-80) was 87 % of control. The T/C (dose: 30.0 mg/kg/injection, schedule: Q04DX003 (sc), vehicle: saline with Tween-80) was 62 % of control and 78 % of control.

With O=NNc1ccccn1 the T/C (dose: 0.13 mg/kg/injection, schedule: Q01DX010 (sc), vehicle: saline) was 120 % of control, the T/C (dose: 0.25 mg/kg/injection, schedule: Q01DX010 (sc), vehicle: saline) was 309 % of control and the T/C (dose: 0.5 mg/kg/injection, schedule: Q01DX010 (sc), vehicle: saline) was 211 % of control. The T/C [5] was 105 % of control, the T/C (dose: 32.0 mg/kg/injection, schedule: Q01DX010 (sc), vehicle: saline) was 46 % of control and the T/C (dose: 64.0 mg/kg/injection, schedule: Q01DX010 (sc), vehicle: saline) was 30 % of control.

For CCCCNC(C)C1(O)Cc2c(O)c3c(c(O)c2C(OC2CC(N)C(O)C(C)O2)C1)C(=O)c1c(OC)cccc1C3=O (configuration not stated), the T/C (dose: 300.0 mg/kg/injection, schedule: Q04DX003 (sc), vehicle: water) was 99 % of control and the T/C (dose: 600.0 mg/kg/injection, schedule: Q04DX003 (sc), vehicle: water) was 84 % of control.

With C/C(=C\c1ccccc1)[N+](=O)[O-] the T/C (dose: 6.25 mg/kg/injection, schedule: Q01DX010 (sc), vehicle: Klucel (hydroxypropylcellulose) (HPC)) was 60 % of control, the T/C (dose: 12.5 mg/kg/injection, schedule: Q01DX010 (sc), vehicle: Klucel (hydroxypropylcellulose) (HPC)) was 56 % of control and the T/C (dose: 100.0 mg/kg/injection, schedule: Q01DX010 (sc), vehicle: Klucel (hydroxypropylcellulose) (HPC)) was 159 % of control. For the same molecule, the T/C (dose: 200.0 mg/kg/injection, schedule: Q01DX010 (sc), vehicle: Klucel (hydroxypropylcellulose) (HPC)) was 196 % of control.
